From US12146004B2, “Polymyxin compounds and uses thereof” (priority 2014, dated 2024)
≈ marks a conversion by molar mass, not a printed value. Bridge positions count the residues as written; N and C are the ends. Square brackets hold non-standard residues; d marks the D form. Peptide text beside a SMILES is read from it. * marks the point of attachment. X9 = Cc1ccc(CO[C@@H](CCN)C(=O)*)cc1; dCha = N[C@H](CC1CCCCC1)C(=O)O; X24 = NCCC(Cc1ccsc1)C(=O)*; Dab = NCC[C@H](N)C(=O)O; Dap = NC[C@H](N)C(=O)O

Experiments:
Type in all cases: cell-based
Klebsiella pneumoniae = test system: Klebsiella pneumoniae
Method in brief: (§1)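 Strain panels of up to nine per species, with resistant and Polymyxin-tolerant strains included, were used for susceptibility testing; read-out was MIC (μg/mL).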

Pseudomonas aeruginosa = test system: Pseudomonas aeruginosa
Method in brief: as §1

Acinetobacter baumannii = test system: Acinetobacter baumannii
Method in brief: as §1

Escherichia coli = test system: Escherichia coli
Method in brief: as §1

| Compound | MIC K. pneumoniae 063 (Klebsiella pneumoniae) [µg/mL] | MIC K. pneumoniae 065 (Klebsiella pneumoniae) [µg/mL] | MIC K. pneumoniae ATCC 13882 (Klebsiella pneumoniae) [µg/mL] | MIC P. aeruginosa 068 (Pseudomonas aeruginosa) [µg/mL] | MIC P. aeruginosa 070 (Pseudomonas aeruginosa) [µg/mL] | MIC P. aeruginosa ATCC 27853 (Pseudomonas aeruginosa) [µg/mL] | MIC P. aeruginosa CCUG 59347 (Pseudomonas aeruginosa) [µg/mL] | MIC A. baumanii 053 (Acinetobacter baumannii) [µg/mL] | MIC A. baumanii 056 (Acinetobacter baumannii) [µg/mL] | MIC A. baumanii ATCC BAA-747 (Acinetobacter baumannii) [µg/mL] | MIC A. baumanii NCTC 13424 (Acinetobacter baumannii) [µg/mL] | MIC E. coli 058 (Escherichia coli) [µg/mL] | MIC E. coli 061 (Escherichia coli) [µg/mL] | MIC E. coli ATCC 25922 (Escherichia coli) [µg/mL] | MIC E. coli NCTC 9001 (Escherichia coli) [µg/mL] | MIC K. pneumoniae 062 (Klebsiella pneumoniae) [µg/mL] | MIC K. pneumoniae 064 (Klebsiella pneumoniae) [µg/mL] | MIC K. pneumoniae 066 (Klebsiella pneumoniae) [µg/mL] | MIC K. pneumoniae 067 (Klebsiella pneumoniae) [µg/mL] | MIC K. pneumoniae ATCC 4352 (Klebsiella pneumoniae) [µg/mL] | other results |
| --- | --- | --- | --- | --- | --- | --- | --- | --- | --- | --- | --- | --- | --- | --- | --- | --- | --- | --- | --- | --- | --- |
| CC(C)C[C@@H]1NC(=O)[C@@H](CC2CCCCC2)NC(=O)[C@H](CCN)NC(=O)[C@@H](NC(=O)[C@H](CCN)NC(=O)[C@@H](NC(=O)C(CN)Cc2ccccc2)C(C)O)CCNC(=O)[C@H]([C@@H](C)O)NC(=O)[C@H](CCN)NC(=O)[C@H](CCN)NC1=O (single isomer, unassigned; isomer 2) [Example 53, 3-amino-2-benzylpropanoyl polymyxin [D-cyclohexylalanine]-6 nonapeptide. Isomer 2] | 64 (≈ 56.6 µM) | 4 (≈ 3.54 µM) | 0.25 (≈ 0.221 µM) | 8 (≈ 7.08 µM) | 8 (≈ 7.08 µM) | 0.25 (≈ 0.221 µM) | 0.5 (≈ 0.442 µM) | 64 (≈ 56.6 µM) | 64 (≈ 56.6 µM) | 0.5 (≈ 0.442 µM) | 0.5 (≈ 0.442 µM) | 4 (≈ 3.54 µM) | 32 (≈ 28.3 µM) | 0.25 (≈ 0.221 µM) | 0.125 (≈ 0.111 µM) |  |  |  |  |  |  |
| CC(C)C[C@@H]1NC(=O)[C@@H](CC2CCCCC2)NC(=O)[C@H](CCN)NC(=O)[C@@H](NC(=O)[C@H](CN)NC(=O)[C@@H](NC(=O)C(CCN)Cc2cccc(F)c2)C(C)O)CCNC(=O)[C@H]([C@@H](C)O)NC(=O)[C@H](CCN)NC(=O)[C@H](CCN)NC1=O (single isomer, unassigned; isomer 2) [Example 45, 4-amino-2-(3-fluorobenzyl) butanoyl L-Thr-L-Dap-polymyxin [D-cyclohexylalanine]-6 heptapeptide. isomer 2] | 16 (≈ 13.9 µM) | 1 (≈ 0.871 µM) | 0.25 (≈ 0.218 µM) | 1 (≈ 0.871 µM) | 1 (≈ 0.871 µM) | 0.125 (≈ 0.109 µM) | 0.25 (≈ 0.218 µM) | 64 (≈ 55.7 µM) | 64 (≈ 55.7 µM) | 0.25 (≈ 0.218 µM) | 0.25 (≈ 0.218 µM) | 4 (≈ 3.48 µM) | 16 (≈ 13.9 µM) | 0.25 (≈ 0.218 µM) | 0.06 (≈ 0.0522 µM) |  |  |  |  |  |  |
| Cc1ccc(CO[C@@H](CCN)C(=O)N[C@H](C(=O)N[C@@H](CN)C(=O)N[C@H]2CCNC(=O)[C@H]([C@@H](C)O)NC(=O)[C@H](CCN)NC(=O)[C@H](CCN)NC(=O)[C@H](CC(C)C)NC(=O)[C@@H](CC3CCCCC3)NC(=O)[C@H](CCN)NC2=O)[C@@H](C)O)cc1 [Example 71, (S)-4-amino-2-((4-methylbenzyl)oxy) butanoyl L-Thr-L-Dap-polymyxin [D-cyclohexylalanine]-6 heptapeptide.] (X9-T[Dap][Dab][Dab][dCha]L[Dab][Dab]T; lactam 3-C) | 64 (≈ 55.2 µM) | 4 (≈ 3.45 µM) | 0.25 (≈ 0.215 µM) | 8 (≈ 6.89 µM) | 16 (≈ 13.8 µM) | 0.25 (≈ 0.215 µM) | 0.25 (≈ 0.215 µM) | 64 (≈ 55.2 µM) | 32 (≈ 27.6 µM) | 0.125 (≈ 0.108 µM) | 0.125 (≈ 0.108 µM) | 4 (≈ 3.45 µM) | 16 (≈ 13.8 µM) | 0.125 (≈ 0.108 µM) | 0.125 (≈ 0.108 µM) |  |  |  |  | 0.25 (≈ 0.215 µM) |  |
| CC(C)C[C@@H]1NC(=O)[C@@H](CC2CCCCC2)NC(=O)[C@H](CCN)NC(=O)[C@@H](NC(=O)[C@H](CN)NC(=O)[C@@H](NC(=O)C(CCN)Cc2ccsc2)[C@@H](C)O)CCNC(=O)[C@H]([C@@H](C)O)NC(=O)[C@H](CCN)NC(=O)[C@H](CCN)NC1=O (stereo partly drawn) [Example 68, 4-amino-2-(thiophen-3-ylmethyl)butanoyl L-Thr-L-Dap-polymyxin [D-cyclohexylalanine]-6 heptapeptide.] (X24-T[Dap][Dab][Dab][dCha]L[Dab][Dab]T; lactam 3-C) | 16 (≈ 14.1 µM) | 1 (≈ 0.88 µM) | 0.25 (≈ 0.22 µM) | 1 (≈ 0.88 µM) | 1 (≈ 0.88 µM) | 0.25 (≈ 0.22 µM) | 0.5 (≈ 0.44 µM) | >64 | 64 (≈ 56.3 µM) | 0.25 (≈ 0.22 µM) | 0.25 (≈ 0.22 µM) | 2 (≈ 1.76 µM) | 16 (≈ 14.1 µM) | 0.125 (≈ 0.11 µM) |  |  |  |  |  |  |  |

Continued, in another order:

| MIC K. pneumoniae 063 (Klebsiella pneumoniae) [µg/mL] | MIC K. pneumoniae 065 (Klebsiella pneumoniae) [µg/mL] | MIC K. pneumoniae ATCC 13882 (Klebsiella pneumoniae) [µg/mL] | MIC P. aeruginosa 068 (Pseudomonas aeruginosa) [µg/mL] | MIC P. aeruginosa 070 (Pseudomonas aeruginosa) [µg/mL] | MIC P. aeruginosa ATCC 27853 (Pseudomonas aeruginosa) [µg/mL] | MIC P. aeruginosa CCUG 59347 (Pseudomonas aeruginosa) [µg/mL] | MIC A. baumanii 053 (Acinetobacter baumannii) [µg/mL] | MIC A. baumanii 056 (Acinetobacter baumannii) [µg/mL] | MIC A. baumanii ATCC BAA-747 (Acinetobacter baumannii) [µg/mL] | MIC A. baumanii NCTC 13424 (Acinetobacter baumannii) [µg/mL] | MIC E. coli 058 (Escherichia coli) [µg/mL] | MIC E. coli 061 (Escherichia coli) [µg/mL] | MIC E. coli ATCC 25922 (Escherichia coli) [µg/mL] | MIC E. coli NCTC 9001 (Escherichia coli) [µg/mL] | MIC K. pneumoniae 062 (Klebsiella pneumoniae) [µg/mL] | MIC K. pneumoniae 064 (Klebsiella pneumoniae) [µg/mL] | MIC K. pneumoniae 066 (Klebsiella pneumoniae) [µg/mL] | MIC K. pneumoniae 067 (Klebsiella pneumoniae) [µg/mL] | MIC K. pneumoniae ATCC 4352 (Klebsiella pneumoniae) [µg/mL] | Compound | other results |
| --- | --- | --- | --- | --- | --- | --- | --- | --- | --- | --- | --- | --- | --- | --- | --- | --- | --- | --- | --- | --- | --- |
| 32 (≈ 25.6 µM) | 1 (≈ 0.801 µM) |  | 2 (≈ 1.6 µM) | 2 (≈ 1.6 µM) |  |  | 8 (≈ 6.41 µM) | 4 (≈ 3.2 µM) | 1 (≈ 0.801 µM) |  | 2 (≈ 1.6 µM) | 8 (≈ 6.41 µM) | 1 (≈ 0.801 µM) |  | 16 (≈ 12.8 µM) | 8 (≈ 6.41 µM) | 4 (≈ 3.2 µM) | 32 (≈ 25.6 µM) | 1 (≈ 0.801 µM) | CCCCCCCCC1CNCC1C(=O)N[C@H](C(=O)N[C@@H](CCN)C(=O)N[C@H]1CCNC(=O)[C@H]([C@@H](C)O)NC(=O)[C@H](CCN)NC(=O)[C@H](CCN)NC(=O)[C@H](CC(C)C)NC(=O)[C@@H](Cc2ccc(-c3ccccc3)cc2)NC(=O)[C@H](CCN)NC1=O)C(C)O (single isomer, unassigned; isomer 1) [Example 7, trans-4-octylpyrrolidine-3-carbonyl polymyxin [D-(4-phenyl)Phe]-6] nonapeptide. Isomer 1] | MIC E. coli 059 (Escherichia coli): 1 µg/mL (≈ 0.801 µM); MIC E. coli 060 (Escherichia coli): 4 µg/mL (≈ 3.2 µM) |
| >64 | 64 (≈ 55.5 µM) |  | 16 (≈ 13.9 µM) | 32 (≈ 27.8 µM) | 1 (≈ 0.868 µM) |  | >64 | >64 | 8 (≈ 6.94 µM) |  | 32 (≈ 27.8 µM) | 64 (≈ 55.5 µM) | 1 (≈ 0.868 µM) |  | >64 | >64 | 64 (≈ 55.5 µM) | >64 | 0.5 (≈ 0.434 µM) | CC(C)CC(CN)C(=O)N[C@H](C(=O)N[C@@H](CN)C(=O)N[C@H]1CCNC(=O)[C@H]([C@@H](C)O)NC(=O)[C@H](CCN)NC(=O)[C@H](CCN)NC(=O)[C@H](CC(C)C)NC(=O)[C@@H](Cc2ccc(-c3ccccc3)cc2)NC(=O)[C@H](CCN)NC1=O)C(C)O (single isomer, unassigned; isomer 1) [Example 15, 2-aminomethyl-4-mehtly pentanoyl polymyxin L-Thr-L-Dap-polymyxin [D-(4-phenyl Phe)]-6]heptapeptide. Isomer 1] | MIC E. coli 059 (Escherichia coli): 16 µg/mL (≈ 13.9 µM); MIC E. coli 060 (Escherichia coli): 32 µg/mL (≈ 27.8 µM) |
